Source: patent publication US12336977B2, “Nitenin analogue compounds and their use in the treatment of chronic and acute pain” (SEA4US-BIOTECNOLOGIA E RECURSOS MARINHOS, LDA., priority 2019, dated 2025)
“Also recorded” adds a separate entry of the source.

Assays:
[1] = tested on: CCI rats (chronic constriction of the sciatic nerve of Wistar rats); experiment: neuropathic pain rat model CCI, von Frey filaments; format: in vivo
Excerpt: FIG. 4 illustrates behavioral readouts as measures of pain during treatment with nitenin on a Neuropatic pain rat model CCI (Chronic constriction injury). Typical experiment using a group of Wistar rats subjected to four unilateral sciatic nerve constrictions. Values refer to the mechanical sensitivity to stimulation using calibrated von Frey Filaments, and consequently reflecting hyperalgesia when hypersensitive (black filled markers—ipsilateral, operated leg; Open markers—contralateral, uninjured leg). Dotted line refers to the average value of the ipsilateral paw prior to surgery. a) Induction of the model showing that 3 days after operation, the mechanical sensitivity of the ipsilateral limb increases markedly, whereas the one associated with the contralateral leg remained unchanged, similar to baseline values. This tendency is maintained during 26 days after surgery, day that treatment with nitenin was performed (circle with dotted line). b) Effect of intravenous injection of nitenin (estimated plasma concentration of 1 μg/ml) on the mechanical sensitivity of the ipsilateral leg. For clarity, the data of the contralateral limb is not shown but it remains unaltered. […]
For efficacy studies, nociception was assessed in all animals from all pain models by regular behavioural monitoring, by quantifying the sensitivity to mechanical stimuli with Von Frey filaments, and consequently reflecting hyperalgesia when hypersensitive. […] Intraperitoneal administration was tested in CFA rats (23 days after CFA injection), with 10 times the nitenin quantity administered by I.V. injections. […]

[2] = tested on: slow currents from large diameter DRG neurons; experiment: slow currents of large diameter DRG neurons; format: cell-based, rat; settings: relative to sdDRGNs
Excerpt: The K^+ currents affected by the identified compounds, recorded from sdDRGNs (and sdTGNs) by whole-cell voltage-clamp techniques, were object of intensive research by the applicant in the area of pain neurophysiology. The use of rat pain models was fundamental to perform previous target validation, i.e., to determine the K^+ current component differentially expressed in pain conditions. […] The nature of the recorded modulatory effect on the currents was studied by monitoring several biophysical parameters, such as voltage dependencies of activation and inactivation and kinetics. The specificity of the bioactivity was carried out by comparing the pharmacological effect on currents recorded from the sdDRGNs with those in other types of dorsal root ganglia (medium and large diameter DGRs).
Lastly, regarding specificity, it is important to note that the slow currents obtained from large diameter DRG neurons are around 10 times less sensitive to nitenin.

[3] = tested on: Naïve Wistar control rats; experiment: naive Wistar controls, von Frey filaments; format: in vivo, rat; settings: I.V. injections
Experimental: […]
For efficacy studies, nociception was assessed in all animals from all pain models by regular behavioural monitoring, by quantifying the sensitivity to mechanical stimuli with Von Frey filaments, and consequently reflecting hyperalgesia when hypersensitive. […] Intraperitoneal administration was tested in CFA rats (23 days after CFA injection), with 10 times the nitenin quantity administered by I.V. injections. […] Oral administration of nitenin through stomach gavages (endogastric), with 100 times the quantity administered by I.V. injections, was tested in CCI rats (31 days after surgery). […]

[4] = tested on: anesthetized Wistar rats; experiment: in vivo ECG recordings of anesthetized Wistar rats; set-up: species or system rat; settings: intravenous 60 μg/Kg

C/C(=C\C1C/C(=C/CCc2ccoc2)C(=O)O1)CCCc1ccoc1 (stereo not shown) [nitenin]
behavioural scores of the contralateral (uninjured) paw ([1]; I.V. 1 μg/mL of blood): no changes | mechanical sensitivity of ipsilateral paw (von Frey) ([1]; I.V. 1 μg/mL of blood ~0.06 mg/Kg, acute (3 days) and chronic (22 to 31 days)): reaching values not different to those obtained during baseline; also recorded: noticeable decrease of sensitivity to mechanical stimuli | time of maximum effect after injection ([1]; intravenous, estimated plasma concentration 1 μg/ml, 26 days after surgery): ~1 h | lower sensitivity of slow currents of large diameter DRG neurons [2]: around 10 times | sensitivity scores, both paws [3]: never any change in sensitivity scores | arrhythmia or pro-arrhythmic phenomena (ECG) [4]: neither induced arrhythmia or any pro-arrhythmic phenomena | sinus rhythm and heart rate (ECG) [4]: did not change
